Earlier results as cited in patent US20060128805A1, “Methods of treating erythropoietin-resistance” (priority 2004, published 2006).

Details: within the first hour of oral administration

With `Cc1c(O)c(=O)ccn1C` [deferiprone, 1,2-dimethyl-3-hydroxy-pyrid-4-one] as the compound, how does the “mean increase in plasma aluminum” value read?
The value was “about 90%”.
